Measurements from US20060062729A1, “Enhanced ligand binding to neurotensin receptors” (priority 2004, published 2006).
Values joined by “and” are separate entries in the source; they are usually repeats but may differ in a detail not shown here. Identical values can stand only once. No end group written: not given here.

What was measured:
PC3 cells = test: ATP-induced IP formation in PC3 cells; assay type: cell-based; details: maximal dose of ATP (10 μM)
5-LOX = biological target: T1, 5-LOX (Homo sapiens, UniProt P09917); details: range of reported values, various blood cell systems; cited from earlier work
T1 sequence (P09917 1-674): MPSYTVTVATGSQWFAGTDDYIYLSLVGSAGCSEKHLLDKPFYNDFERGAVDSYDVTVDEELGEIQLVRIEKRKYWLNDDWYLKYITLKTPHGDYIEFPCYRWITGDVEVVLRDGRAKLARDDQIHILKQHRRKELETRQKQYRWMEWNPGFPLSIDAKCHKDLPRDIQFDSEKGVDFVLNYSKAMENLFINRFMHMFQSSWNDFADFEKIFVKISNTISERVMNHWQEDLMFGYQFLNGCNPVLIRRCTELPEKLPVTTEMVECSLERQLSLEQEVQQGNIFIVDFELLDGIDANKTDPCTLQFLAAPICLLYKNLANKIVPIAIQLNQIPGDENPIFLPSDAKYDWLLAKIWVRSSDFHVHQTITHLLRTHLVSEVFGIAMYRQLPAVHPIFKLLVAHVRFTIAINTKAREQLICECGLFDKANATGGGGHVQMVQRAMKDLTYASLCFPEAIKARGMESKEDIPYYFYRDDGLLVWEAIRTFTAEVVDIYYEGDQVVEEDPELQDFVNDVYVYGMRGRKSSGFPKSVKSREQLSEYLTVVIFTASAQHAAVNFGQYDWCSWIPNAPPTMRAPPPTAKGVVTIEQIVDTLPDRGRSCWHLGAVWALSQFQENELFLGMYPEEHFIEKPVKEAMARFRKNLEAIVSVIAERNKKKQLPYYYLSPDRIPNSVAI

NTR1 [1] = biological target: T2, NTR1 (Homo sapiens, UniProt P30989); test: UV crosslinking of ^125I-(4-azido-Phe^6)-NT into immunoprecipitated NTR1 of PC3 cells; assay type: binding; parameters: Ab-NTR1 detected two major bands in extracts of PC3 cells, the parent protein of 50 kDa; endogenous in cells; host or cells: PC3 cells (ATCC); details: 50 μM agent
bombesin receptor = biological target: T3, bombesin receptor (Homo sapiens, UniProt P30550); test: ^125I-[Nle^14]-bombesin binding to PC3 cells; details: for Specific Binding (% control) of ^125I-[Nle14]-bombesin: 37° C.
T3 construct: endogenous in cells; host or cells: PC3 cells (ATCC)

NTR1 [2] = biological target: T2, NTR1; test: ^125I-NT binding to PC3 cells
NTR1 [3] = biological target: T2, NTR1; test: ^125I-NT binding to isolated PC3 cell membranes; parameters: Ab-NTR1 detected two major bands in extracts of PC3 cells, the parent protein of 50 kDa; endogenous in cells; host or cells: PC3 cells (ATCC)
EGF receptor = biological target: T4, EGF receptor (Homo sapiens, UniProt P00533); test: ^125I-EGF binding to PC3 cells; details: PC3 cells (text to Table 9)
T4 construct: endogenous in cells; host or cells: PC3 cells (ATCC)

NTR1 [4] = biological target: T2, NTR1; test: NT-induced IP formation in PC3 cells; assay type: cell-based; parameters: Ab-NTR1 detected two major bands in extracts of PC3 cells, the parent protein of 50 kDa; endogenous in cells; host or cells: PC3 cells (ATCC); details: maximal % decrease in NT-induced IP formation
NTR1 [5] = biological target: T2, NTR1; assay type: cell-based; parameters: Ab-NTR1 detected two major bands in extracts of PC3 cells, the parent protein of 50 kDa; endogenous in cells; host or cells: PC3 cells (ATCC); details: 50 μM agent, 37° C., ^125I-NT prebound at 4° C.
[6] = biological target: neurotensin-1 receptor (NTR1) (Homo sapiens, UniProt P30989); details: read-out: binding affinity; cited from earlier work
[7] = biological target: neurotensin-2 receptor (NTR2) (Homo sapiens, UniProt O95665); details: read-out: binding affinity; cited from earlier work
Sequence of neurotensin-2 receptor (NTR2) (O95665 whole entry, species assumed): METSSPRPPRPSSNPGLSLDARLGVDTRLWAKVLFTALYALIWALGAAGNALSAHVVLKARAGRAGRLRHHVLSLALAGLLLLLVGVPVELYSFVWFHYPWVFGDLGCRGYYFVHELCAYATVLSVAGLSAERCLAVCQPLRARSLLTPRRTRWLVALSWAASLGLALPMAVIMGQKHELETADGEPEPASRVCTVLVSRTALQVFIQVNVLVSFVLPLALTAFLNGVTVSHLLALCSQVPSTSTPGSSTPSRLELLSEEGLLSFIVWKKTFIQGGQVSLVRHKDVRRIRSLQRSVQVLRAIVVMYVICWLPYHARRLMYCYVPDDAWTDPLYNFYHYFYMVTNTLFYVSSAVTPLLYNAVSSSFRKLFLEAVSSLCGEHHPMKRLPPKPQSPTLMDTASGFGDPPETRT

T3 sequence (P30550 whole entry): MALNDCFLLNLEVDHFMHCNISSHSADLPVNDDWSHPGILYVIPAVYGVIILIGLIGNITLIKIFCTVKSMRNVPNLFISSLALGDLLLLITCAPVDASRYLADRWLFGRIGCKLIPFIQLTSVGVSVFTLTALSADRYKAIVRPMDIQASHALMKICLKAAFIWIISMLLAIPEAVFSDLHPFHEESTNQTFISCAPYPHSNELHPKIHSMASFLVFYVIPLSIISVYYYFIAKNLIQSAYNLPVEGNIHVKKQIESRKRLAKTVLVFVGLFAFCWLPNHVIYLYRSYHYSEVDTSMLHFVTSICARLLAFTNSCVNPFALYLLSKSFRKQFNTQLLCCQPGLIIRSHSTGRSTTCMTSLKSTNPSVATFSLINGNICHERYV
T2 sequence (P30989 whole entry): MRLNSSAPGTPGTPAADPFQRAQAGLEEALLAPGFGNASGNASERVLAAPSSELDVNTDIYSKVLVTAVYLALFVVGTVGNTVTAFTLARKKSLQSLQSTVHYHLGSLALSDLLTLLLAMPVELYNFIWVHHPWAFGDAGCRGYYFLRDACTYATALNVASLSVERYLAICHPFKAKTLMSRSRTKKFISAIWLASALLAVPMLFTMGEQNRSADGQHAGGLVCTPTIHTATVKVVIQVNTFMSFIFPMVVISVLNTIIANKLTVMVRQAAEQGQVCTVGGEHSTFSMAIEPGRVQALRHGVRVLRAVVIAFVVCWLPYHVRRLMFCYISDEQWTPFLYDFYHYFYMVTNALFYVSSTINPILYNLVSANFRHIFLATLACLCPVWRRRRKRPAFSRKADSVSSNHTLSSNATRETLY
Sequence of neurotensin-1 receptor (NTR1) (P30989 whole entry, species assumed): as the sequence (P30989 whole entry) above
T4 sequence (P00533 25-1210): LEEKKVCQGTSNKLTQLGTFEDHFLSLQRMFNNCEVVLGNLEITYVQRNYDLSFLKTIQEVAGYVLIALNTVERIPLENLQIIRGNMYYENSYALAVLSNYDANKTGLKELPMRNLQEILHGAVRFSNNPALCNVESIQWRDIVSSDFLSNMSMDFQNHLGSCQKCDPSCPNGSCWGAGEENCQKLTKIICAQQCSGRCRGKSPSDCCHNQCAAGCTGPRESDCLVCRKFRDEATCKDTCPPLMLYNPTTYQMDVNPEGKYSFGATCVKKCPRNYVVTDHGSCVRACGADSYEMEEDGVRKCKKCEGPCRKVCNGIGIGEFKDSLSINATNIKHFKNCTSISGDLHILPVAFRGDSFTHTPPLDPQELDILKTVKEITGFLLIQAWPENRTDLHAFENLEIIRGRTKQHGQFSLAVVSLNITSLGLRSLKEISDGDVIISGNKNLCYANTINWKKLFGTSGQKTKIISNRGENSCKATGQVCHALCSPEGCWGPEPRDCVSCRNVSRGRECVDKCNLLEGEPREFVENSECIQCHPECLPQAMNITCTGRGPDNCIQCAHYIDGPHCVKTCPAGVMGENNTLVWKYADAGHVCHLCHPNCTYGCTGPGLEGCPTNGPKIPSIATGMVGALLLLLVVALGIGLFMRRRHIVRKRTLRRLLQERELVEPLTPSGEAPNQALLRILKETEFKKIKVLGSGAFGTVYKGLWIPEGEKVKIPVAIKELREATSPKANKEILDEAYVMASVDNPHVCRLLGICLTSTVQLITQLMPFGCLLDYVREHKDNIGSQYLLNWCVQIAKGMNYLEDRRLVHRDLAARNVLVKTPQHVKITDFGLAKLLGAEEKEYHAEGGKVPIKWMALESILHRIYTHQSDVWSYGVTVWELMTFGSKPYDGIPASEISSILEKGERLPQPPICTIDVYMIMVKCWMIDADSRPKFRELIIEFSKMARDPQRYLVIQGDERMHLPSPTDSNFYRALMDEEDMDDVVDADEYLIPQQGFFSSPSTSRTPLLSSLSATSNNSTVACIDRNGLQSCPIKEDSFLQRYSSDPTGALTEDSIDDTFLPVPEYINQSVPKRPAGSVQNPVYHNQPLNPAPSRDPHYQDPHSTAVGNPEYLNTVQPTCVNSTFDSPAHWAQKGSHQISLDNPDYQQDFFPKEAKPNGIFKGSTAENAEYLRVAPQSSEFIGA

Question: For `Nc1ncnc2c1ncn2[C@@H]1O[C@H](COP(=O)(O)OP(=O)(O)OP(=O)(O)O)[C@@H](O)[C@H]1O` [ATP], which “stimulation of IP formation” value (PC3 cells) is on record?
Answer: ~17 fold and > 15 fold

Question: Which IC50 (5-LOX) does the source give for `CC(C)c1ccc2c(c1)c(SC(C)(C)C)c(CC(C)(C)C(=O)O)n2Cc1ccc(Cl)cc1` [MK886] here?
Answer: 100 to 1000 nM

Question: And the “radioactivity associated with NTR1” value (NTR1 [1])?
Answer: 2.7±0.3 fold

Question: And the “Specific Binding (% control) of ^125I-[Nle14]-bombesin” value (bombesin receptor; 12 μM LOX blocker)?
Answer: 106 ± 5 % control

Question: What about the “Specific Binding (% control) of ^125I-[Nle14]-bombesin” value (bombesin receptor; 60 μM LOX blocker) of the same compound?
Answer: 125 ± 7 % control

Question: What about the “NT Binding Efficacy % increase” value (NTR1 [2]; LOX blockers) of the same compound?
Answer: 210 % increase

Question: And the “maximal increase in NT binding to PC3 cells” value (NTR1 [2]; as much as / up to, dose-response)?
Answer: ≤ 3.0 fold

Question: What about the EC50 (NTR1 [2]; read-out: NT Binding EC50, [agent] giving 100% increase in NT binding) of the same compound?
Answer: 18000 nM

Question: And the “Specific NT-Binding (% control)” value (NTR1 [3]; 10 μM LOX pathway blocker)?
Answer: 99 ± 3 % control

Question: What about the “Specific NT-Binding (% control)” value (NTR1 [3]; 25 μM LOX pathway blocker) of the same compound?
Answer: 107 ± 4 % control

Question: And the “Specific NT-Binding (% control)” value (NTR1 [3]; 75 μM LOX pathway blocker)?
Answer: 97 ± 4 % control

Question: What about the “increase in EGF binding” value (EGF receptor) of the same compound?
Answer: 65%

Question: With `O=C(CCc1ccc(O)cc1)c1c(O)cc(O)cc1O` [Phloretin] as the compound, how does the “IP Formation Efficacy (% decrease)” value (NTR1 [4]) read?
Answer: 70 % decrease

Question: What about the Internalization rate (NTR1 [5]) of the same compound?
Answer: 8.1±0.7 %/minute

Question: What about the “Specific Binding (% control) of ^125I-[Nle^14]-bombesin” value (bombesin receptor; 12 μM agent) of the same compound?
Answer: 104 ± 3 % control

Question: What about the “Specific Binding (% control) of ^125I-[Nle^14]-bombesin” value (bombesin receptor; 60 μM agent) of the same compound?
Answer: 111 ± 4 % control

Question: What about the “NT Binding Efficacy % increase” value (NTR1 [2]; maximal % increase in NT binding observed for each agent) of the same compound?
Answer: 186 % increase

Question: What about the “Specific NT-Binding (% control)” value (NTR1 [3]; 10 μM agent, 22° C., 60 minutes) of the same compound?
Answer: 110 ± 7 % control

Question: And the “Specific NT-Binding (% control)” value (NTR1 [3]; 25 μM agent)?
Answer: 105 ± 8 % control

Question: What about the “Specific NT-Binding (% control)” value (NTR1 [3]; 75 μM agent) of the same compound?
Answer: 97 ± 8 % control

Question: With “Trp 11 NT(1-13): peptide identical to NT (1-13) except tryptophan for tyrosine at amino acid 11 (QLYENKPRRPWIL; ends and bridges not checked; UniProt P30990 151-163, looked up, variant Y11W)” as the compound, how does the Kd [6] read?
Answer: ~1 nM

Question: And the Kd [7]?
Answer: ~27 nM
